Measured values as given in patent publication US20240367098A1, “CARBON DIOXIDE ABSORBENT, METHOD FOR RECOVERING CARBON DIOXIDE, AND APPARATUS FOR SEPARATING AND RECOVERING CARBON DIOXIDE” (MITSUBISHI GAS CHEMICAL COMPANY, INC., priority 2021, published 2024).

Assays:
Assay type in all cases: physicochemical
[1] = Acid dissociation constant (pKa) of amine compound (acid-base titration); settings: 25±2° C., in purified water
Protocol: The acid dissociation constant of the amine compound was determined by the following method. • (1) Dissolving 0.2 g of the amine compound in 30 mL of the purified water. • (2) Calculating the acid dissociation constant (pKa) by titrating the solution obtained in the above (1) with the 0.1 N perchloric acid-acetic acid solution using the automatic potentiometric titrator (AT-610 produced by Kyoto Electronics Manufacturing Co., Ltd.).
Still, let the temperature at the time of measurement be 25±2° C.

[2] = Maximum carbon dioxide (CO2) release temperature of amine compound (DSC after CO2 absorption from air); settings: amine compound stood 24 hours in air at 23° C., 50% RH; DSC 23 to 250° C., 10° C./minute, nitrogen
Protocol: A carbon dioxide concentration meter and a petri dish were placed inside an openable desiccator (Internal Dimension: 370 mm×260 mm×272 mm). […] An initial concentration of carbon dioxide was adjusted to about 400 ppm. Then, the amine compound was removed from the desiccator to obtain the amine compound with carbon dioxide absorbed. The DSC measurement was performed on the amine compound with carbon dioxide absorbed as follows, to measure the maximum carbon dioxide release temperature of the amine compound. First, the differential scanning calorimetry was performed on the amine compound using the differential thermogravimetric analyzer (Product Name: DTG-60 produced by Shimadzu Corporation) under the conditions of 23 to 250° C. of a measurement temperature range, 10° C./minute of the heating rate, and the nitrogen atmosphere. From the DSC curve obtained thereby, the temperature at which the endothermic amount associated with the desorption of carbon dioxide reached the maximum was calculated, and the temperature thereof was used as the maximum carbon dioxide release temperature of the amine compound.

[3] = Maximum endothermic temperature of amine compound (DSC); settings: DSC 23 to 350° C., 10° C./minute, nitrogen; volatilization of the amine compound
Protocol: DSC measurements were performed on the amine compounds to measure the maximum endothermic temperature of the amine compounds as follows. First, a differential scanning calorimetry was performed on the amine compounds using a differential thermogravimetric analyzer (Product Name: DTG-60 produced by Shimadzu Corporation) under conditions of 23 to 350° C. of a measurement temperature range, 10° C./minute of a heating rate, and a nitrogen atmosphere. From the DSC curve obtained thereby, the temperature at which the endothermic amount associated with the volatilization of the amine compound reached the maximum was calculated, and the temperature thereof was used as the maximum endothermic temperature of the amine compound.

[4] = Amine value of amine compound (JIS K7237-1995 titration); settings: 0.1 N perchloric acid-acetic acid titration
Protocol: The amine value was measured by the following measurement method in accordance with JIS K7237-1995. • (1) Dissolving 0.1 g of the amine compound in 20 mL of the acetic acid. • (2) Calculating the amine value by titrating the solution obtained in the above (1) with the 0.1 N perchloric acid-acetic acid solution using the automatic potentiometric titrator (AT-610 produced by Kyoto Electronics Manufacturing Co., Ltd.).

Row | pKa [1] | Maximum CO2 Release Temperature [2] | Maximum Endothermic Temperature [3] | Amine Value [4] | Structure (SMILES)
1 | 10.3 |  |  |  | NCCNCCNCCN [TETA, triethylenetetramine]
2 | 10.1 | 81.9 °C | 118.4 °C | 1154 mgKOH/g | NCCN1CCNCC1 [AEP, 2-aminoethylpiperazine]
3 | 9.8 | 102.3 °C | 298.2 °C | 890 mgKOH/g | NCCCN(CCCN)CC1CCCC(CN(CCCN)CCCN)C1 (stereo not shown) [1,3-BAC-tetraAP]
4 | 9.5 |  |  |  | NCCCNCC1CCCC(CNCCCN)C1 (stereo not shown) [1,3-BAC-BisAP]
